Laboratory results: paper PMC4822050, “Hemi-methylated DNA opens a closed conformation of UHRF1 to facilitate its histone recognition” (Nature Communications, 2016)
Each block holds one substance with its values, some of them ahead of it.

Assays:
[1] = biological target: T1, TTD (residues 134–285) of UHRF1 (Homo sapiens, UniProt Q96T88); test: ITC, TTD titrated into Spacer variants and other UHRF1 fragments; type: binding; conditions: TTD in syringe
T1 construct: TTD (residues 134–285); GST (N, cleaved yes); made in house; host or cells: E. coli BL21 (DE3)
T1 sequence (Q96T88 134-285): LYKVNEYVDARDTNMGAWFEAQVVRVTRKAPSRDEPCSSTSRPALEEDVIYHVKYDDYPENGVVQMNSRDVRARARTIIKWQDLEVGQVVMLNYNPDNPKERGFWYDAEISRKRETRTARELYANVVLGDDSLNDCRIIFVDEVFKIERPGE
Method: (§1) For competition ITC experiments: the indicated proteins were pre-incubated with competitive peptide, protein or hm-DNA (at 1:2 molar ratio if not specified) for 10 min followed by ITC measurements as described above. Proteins, DNA and peptides were prepared within ITC buffer containing 10 mM HEPES, pH 8.0, 100 mM NaCl. The data were fitted by software Origin 7.0. All ITC results were summarized in Supplementary Table 2 and raw data were shown in Supplementary Fig. 9.

[2] = tested on: H3 peptide (1–17) (H3K9me0); test: ITC, H3 (H3K9me0) peptide (1-17) titrated into UHRF1 proteins; type: binding
Method: as §1

H3K9me3 peptide (1–17) = test: ITC, H3K9me3 peptide (1-17) titrated into UHRF1 proteins; type: binding; conditions: ITC, 18 °C; named protein 0.05 mM in cell, H3K9me3 (1-17) 0.5 mM in syringe; 10 mM HEPES pH 8.0, 100 mM NaCl; read-out: KD
Method: as §1

FAM-12bp-HM-DNA = test: Fluorescence polarization, 12-bp FAM-hm-DNA; type: binding; conditions: FP
Method: A 6-carboxy-fluorescein (FAM)-labelled primer, 5′-CCATGCGCTGAC-3′, was annealed to a primer 5′-GTCAGXGCATGG-3′ (X=5-methyldeoxycytosine). The hemi-methylated double-strand DNA was used in both electrophoretic mobility-shift assay and FP assays. […] The samples were subjected to a 10% polyacrylamide gel electrophoresis and run in 0.5 × Tris-borate-EDTA buffer at 100 V for 1 h at 4 °C. The results were visualized on Tanon-5200 Chemiluminescent Imaging System (Tanon Science & Technology Co., Ltd).
(§2) FP measurements were performed at 25 °C on Synergy 4 Microplate Reader (BioTek). The 16-bp and 20-bp FAM-labelled hm-DNA (lower strand: 5′-GTGTCAGXGCATGGCC-3′ and 5′-CCGTGTCAGXGCATGGCCAT-3′, respectively. X=5-methyldeoxycytosine) were used in the FP experiment to test the effect of DNA length on the protein/DNA interaction. All experiments were performed in triplicate. The curves were fitted by GraphPad Prism 5. For salt concentration-dependent FP experiments, the reaction buffer contains 50 mM or 150 mM NaCl, respectively.

[3] = tested on: DAPI foci (pericentromeric heterochromatin) in NIH3T3 cells; test: Subcellular localization of GFP-tagged UHRF1 in NIH3T3 cells; type: cell-based; conditions: GFP-tagged protein transiently overexpressed in NIH3T3 cells, 36 h after transfection; at least 100 cells counted; repeated three times
Method: NIH3T3 cells were obtained from the Shanghai Institute of Biochemistry and Cell Biology. Wild type and mutants of UHRF1 were sub-cloned into pEGFP-C1 vector. Transient transfections of NIH3T3 cells were carried out using Lipofectamine 2000 (Invitrogen). The NIH3T3 cells were grown on glass coverslips and harvested in 36 h after transfection. The images were acquired and examined as previously described. Briefly, cells were fixed with 4% paraformaldehyde for 25 min, then washed with PBS three times. Coverslips were mounted with Antifade reagent containing DAPI (Molecular Probes) on slides and examined with a confocal microscopy.

[4] = biological target: PHD (residues 307–366) of UHRF1; test: ITC, PHD titrated into UHRF1 domains; type: binding, human; conditions: 18 °C, PHD in syringe, named protein in cell, 10 mM HEPES pH 8.0, 100 mM NaCl
Method: as §1

hm-DNA (12 bp) = test: ITC, hm-DNA titrated into UHRF1 domains; type: binding; conditions: 18 °C, 12-bp hm-DNA in syringe, named protein in cell, 10 mM HEPES pH 8.0, 100 mM NaCl
Method: as §1

RFTS^DNMT1 = test: ITC, RFTS of DNMT1 with SRA or SRA-Spacer; type: binding; conditions: 18 °C, RFTS^DNMT1 with named protein, 10 mM HEPES pH 8.0, 100 mM NaCl
Method: as §1

FAM-16bp-HM-DNA = test: Fluorescence polarization, 16-bp FAM-hm-DNA; type: binding; conditions: FP, DNA length series
Method: as §2

FAM-20bp-HM-DNA = test: Fluorescence polarization, 20-bp FAM-hm-DNA; type: binding; conditions: FP, DNA length series
Method: as §2

[5] = 25 °C, 20 min, 20 mM HEPES pH 7.5, 175 mM NaCl, 8% glycerol, 1 mM DTT, triplicate, Fig. 5b and Supplementary Table 4

Substance: Spacer642-674: Spacer fragment, residues 642–674 (TGKGKWKRKSAGGGPSRAGSPRRTSKKTKVEPY; left off: GST, end not stated, cleaved)
N ([1]; ITC stoichiometry): 1.09±0.00765
ΔH ([1]; ITC): -11300 cal/mol
ΔS ([1]; ITC): -11.2 cal/mol/deg

Substance: PHD: plant homeodomain of human UHRF1 (residues 307–366) (DDVNRLCRVCACHLCGGRQDPDKQLMCDECDMAFHIYCLDPPLSSVPSEDEWYCPECRND; UniProt Q96T88 307-366, looked up, fragment)
fold higher binding affinity to H3K9me0 peptide than full-length UHRF1 ([2]; ITC KD ratio): ~34 fold

Further lines, with some results ahead:

Kd (H3K9me3 peptide (1–17)): 4.61 ± 0.47 µM
Kd ([2]; ITC, 18 °C, named protein 0.05 mM in cell, H3 (1-17) 0.5 mM in syringe, 10 mM HEPES pH 8.0, 100 mM NaCl): 26 ± 7.01 µM
Kd (FAM-12bp-HM-DNA; [5]): 0.35 µM
Substance: UHRF1: recombinant human UHRF1 (residues 1–793); GFP-tagged in the cell assay
percentage of cells showing co-localization with DAPI foci [3]: 74.6%

Kd [4]: 26.7 ± 12.1 µM
Kd (hm-DNA (12 bp)): 25.1 µM
KD (RFTS^DNMT1): no detectable interaction
Kd (FAM-12bp-HM-DNA; 12-bp hm-DNA, 50 mM NaCl): 0.15 ± 0.018 µM
Kd (FAM-12bp-HM-DNA; 12-bp hm-DNA, 150 mM NaCl): 5.92 ± 1.32 µM
Kd (FAM-12bp-HM-DNA; [5]): 9.23 ± 3.07 µM
Kd (FAM-12bp-HM-DNA; DNA length series, Supplementary Table 5, 12-bp hm-DNA): 12.8 ± 2.07 µM
Kd (FAM-16bp-HM-DNA): 29.4 ± 9.74 µM
Kd (FAM-20bp-HM-DNA): 9.59 ± 4.78 µM
Substance: SRA: SET-and-RING-associated domain of human UHRF1 (residues 414–617)

KD ([1]; ITC, 18 °C, named protein or peptide in cell, 10 mM HEPES pH 8.0, 100 mM NaCl): no detectable interaction
Substance: Spacer587-641: Spacer fragment, residues 587–641 (PGPWTKEGKDRIKKLGLTMQYPEGYLEALANREREKENSKREEEEQQEGGFASPR; left off: GST, end not stated, cleaved)
